Test results published in patent publication US12612409B2, “Pyrrolopyrimidines as CFTR potentiators” (Cystic Fibrosis Foundation, priority 2016, dated 2026).

What was measured:
[1] = biological target: T1, CFTR in F508del/F508del primary CF hBE cells (Homo sapiens, UniProt P13569, DEL508-508); assay: Ussing chamber electrophysiology assay of CFTR potentiation in F508del/F508del CF bronchial epithelial cells (27° C.); type: cell-based
T1 construct: Primary cystic fibrosis human bronchial epithelial (CF hBE) cells were expanded and cultured; endogenous in cells; host or cells: primary CF human bronchial epithelial cells, genotype F508del/F508del
How it was run: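 Well-differentiated primary CF hBE cells (>30 days air/liquid interface) in Ussing chambers, HEPES saline both sides, voltage clamped to zero. Amiloride 30 uM, forskolin 10 uM, four rising compound concentrations, then CFTRinh-172 20 uM added at 20-25 min intervals. Short-circuit current scaled to DMSO (0%) and a positive control potentiator maximum (100%).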

[2] = biological target: T2, recombinant F508del V470 CFTR in Fischer rat thyroid (FRT) cells (Homo sapiens, UniProt P13569, DEL508-508); assay: FRT ion flux assay of F508del CFTR potentiation; type: cell-based; details: FRT cells expressing F508del V470 CFTR, forskolin 20 uM, 27° C. pre-incubation
T2 construct: expressed in transfected cells
How it was run: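 FRT cells co-expressing F508del V470 CFTR and halide-sensitive YFP, temperature-corrected at 27° C for 16-24 h, then treated 30 min with compound plus 20 uM forskolin. Iodide addition quenches YFP, read after ~21 s; ratio scaled to DMSO (0%) and positive control potentiator (100%).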

T2 sequence (P13569 with tags, fused parts or gaps DEL508-508): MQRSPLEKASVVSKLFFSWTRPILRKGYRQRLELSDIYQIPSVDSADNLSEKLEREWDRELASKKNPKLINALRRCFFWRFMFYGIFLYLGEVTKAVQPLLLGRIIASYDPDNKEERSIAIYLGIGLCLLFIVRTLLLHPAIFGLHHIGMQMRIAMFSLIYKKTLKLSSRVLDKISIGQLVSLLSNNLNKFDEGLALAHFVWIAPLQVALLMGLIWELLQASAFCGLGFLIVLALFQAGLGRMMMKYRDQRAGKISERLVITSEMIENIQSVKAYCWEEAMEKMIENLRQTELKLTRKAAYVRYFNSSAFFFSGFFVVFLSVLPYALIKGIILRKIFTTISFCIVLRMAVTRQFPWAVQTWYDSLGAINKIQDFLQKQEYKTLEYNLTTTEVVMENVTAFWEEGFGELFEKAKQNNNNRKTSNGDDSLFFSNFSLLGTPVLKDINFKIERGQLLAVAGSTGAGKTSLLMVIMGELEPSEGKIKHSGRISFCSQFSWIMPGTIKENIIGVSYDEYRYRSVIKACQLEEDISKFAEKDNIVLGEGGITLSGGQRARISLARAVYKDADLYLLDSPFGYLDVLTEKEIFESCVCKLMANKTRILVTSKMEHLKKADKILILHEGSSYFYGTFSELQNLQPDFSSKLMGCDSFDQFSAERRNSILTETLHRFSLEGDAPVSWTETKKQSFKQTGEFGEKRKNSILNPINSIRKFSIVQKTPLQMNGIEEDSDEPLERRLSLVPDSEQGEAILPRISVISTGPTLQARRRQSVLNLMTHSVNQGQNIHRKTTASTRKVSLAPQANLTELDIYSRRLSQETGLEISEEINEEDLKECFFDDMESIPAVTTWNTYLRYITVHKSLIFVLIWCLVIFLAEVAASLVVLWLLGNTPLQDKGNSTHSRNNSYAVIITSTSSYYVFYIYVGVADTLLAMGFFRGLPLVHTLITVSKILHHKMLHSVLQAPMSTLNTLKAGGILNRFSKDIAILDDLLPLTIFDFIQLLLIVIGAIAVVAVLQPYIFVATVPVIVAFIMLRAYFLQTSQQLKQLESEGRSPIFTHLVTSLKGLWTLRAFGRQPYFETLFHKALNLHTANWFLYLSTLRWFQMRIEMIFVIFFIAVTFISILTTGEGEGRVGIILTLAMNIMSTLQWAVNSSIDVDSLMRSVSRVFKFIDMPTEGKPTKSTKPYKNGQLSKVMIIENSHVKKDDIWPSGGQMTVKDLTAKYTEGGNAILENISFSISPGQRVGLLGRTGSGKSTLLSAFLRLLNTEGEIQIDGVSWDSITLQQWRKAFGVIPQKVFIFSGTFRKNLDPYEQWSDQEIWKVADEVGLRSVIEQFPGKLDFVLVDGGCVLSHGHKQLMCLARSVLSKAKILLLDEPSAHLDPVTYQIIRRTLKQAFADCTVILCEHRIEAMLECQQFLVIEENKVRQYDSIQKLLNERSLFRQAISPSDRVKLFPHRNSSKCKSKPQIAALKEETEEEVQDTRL
T1 sequence (P13569 with tags, fused parts or gaps DEL508-508): as above

Row | SMILES | EC50 [1] | EC50 [2]
1 | CCC(c1cn(-c2ccc(F)cc2)nn1)n1cc(-c2cncnc2OC)c2c(N)ncnc21 (single isomer, unassigned; enantiomer 2) [Example 150, (−) 7-{1-[1-(4-Fluorophenyl)-1H-1,2,3-triazol-4yl]propyl}-5-(4-methoxypyrimidin-5-yl)-7H-pyrrolo[2,3-d]pyrimidin-4-amine, enantiomer 2] | 926 nM | 298 nM
2 | N#Cc1ccc(-c2cn(Cc3cnc(-c4ccccc4F)[nH]3)c3ncnc(N)c23)cc1F [Example 192, 4-(4-Amino-7-{[2-(2-fluorophenyl)-1H-imidazol-5-yl]methyl}-7H-pyrrolo[2,3-d]pyrimidin-5-yl)-2-fluorobenzonitrile] | 118 nM | 83 nM
3 | COc1ncccc1-c1cn(C(C)c2cn(-c3ccccc3F)nn2)c2ncnc(N)c12 (single isomer, unassigned) [Example 113, 7-{1-[1-(2-Fluorophenyl)-1H-1,2,3-triazol-4-yl]ethyl}-5-(2-methoxypyridin-3-yl)-7H-pyrrolo[2,3-d]pyrimidin-4-amine] | 818 nM | 826 nM
4 | CCC(c1cn(-c2ccc(F)cc2F)nn1)n1cc(-c2cnc(OC)c(F)c2)c2c(N)ncnc21 (single isomer, unassigned; enantiomer 2) [Example 166, 7-{1-[1-(2,4-Difluorophenyl)-1H-1,2,3-triazol-4-yl]propyl}-5-(5-fluoro-6-methoxypyridin-3-yl)-7H-pyrrolo[2,3-d]pyrimidin-4-amine, enantiomer 2] | 9 nM | 24.6 nM
5 | CCC(c1cn(-c2ccccc2)nn1)n1cc(-c2cncnc2OC)c2c(N)ncnc21 (single isomer, unassigned; enantiomer 1) [Example 127, (−) 5-(4-Methoxypyrimidin-5-yl)-7-[1-(1-phenyl-1H-1,2,3-triazol-4-yl)propyl]-7H-pyrrolo[2,3-d]pyrimidin-4-amine, enantiomer 1] | 448 nM | 408 nM
6 | CC(c1cn(-c2ccc(F)cc2F)nn1)n1c(C#N)c(-c2ccc(OC3CC3)nc2)c2c(N)ncnc21 (single isomer, unassigned; enantiomer 2) [Example 321, 4-Amino-5-[6-(cyclopropyloxy)pyridin-3-yl]-7-{1-[1-(2,4-difluorophenyl)-1H-1,2,3-triazol-4-yl]ethyl}-7H-pyrrolo[2,3-d]pyrimidine-6-carbonitrile, enantiomer 2] | 141 nM | 359 nM
7 | Nc1ncnc2c1c(-c1ccc3c(c1)CCO3)cn2Cc1cn(-c2ccccc2F)nn1 [Example 74, 5-(2,3-Dihydro-1-benzofuran-5-yl)-7-{[1-(2-fluorophenyl)-1H-1,2,3-triazol-4-yl]methyl}-7H-pyrrolo[2,3-d]pyrimidin-4-amine] | 59 nM | 328 nM
8 | CC(c1cc(-c2ccccc2F)no1)n1cc(-c2ccc(Cl)cc2)c2c(N)ncnc21 (centres unmarked) [Example 258, 5-(4-Chlorophenyl)-7-{1-[3-(2-fluorophenyl)-1,2-oxazol-5-yl]ethyl}-7H-pyrrolo[2,3-d]pyrimidin-4-amine] | 147 nM | 343 nM
9 | COc1ncccc1-c1cn(Cc2nnc(-c3ccccc3F)[nH]2)c2ncnc(N)c12 [Example 253, 7-{[5-(2-Fluorophenyl)-4H-1,2,4-triazol-3-yl]methyl}-5-(2-methoxypyridin-3-yl)-7H-pyrrolo[2,3-d]pyrimidin-4-amine] | 1340 nM | 719 nM
10 | CCC(c1cnn(-c2ccccc2F)c1)n1c(C#N)c(-c2cnc(C(F)(F)F)nc2)c2c(N)ncnc21 (single isomer, unassigned) [Example 3, 4-Amino-7-{1-[1-(2-fluorophenyl)-1H-pyrazol-4-yl]propyl}-5-[2-(trifluoromethyl)pyrimidin-5-yl]-7H-pyrrolo[2,3-d] pyrimidine-6-carbonitrile] | 3.36 nM | 9.17 nM
11 | CCC(c1cn(-c2ccccc2F)nn1)n1cc(-c2ccc(OC(F)F)nc2)c2c(N)ncnc21 (single isomer, unassigned; enantiomer 2) [Example 142, (+) 5-[6-(Difluoromethoxy)pyridin-3-yl]-7-{1-[1-(2-fluorophenyl)-1H-1,2,3-triazol-4-yl]propyl}-7H-pyrrolo[2,3-d]pyrimidin-4-amine, enantiomer 2] | 4.58 nM | 5.02 nM
12 | COc1ncccc1-c1cn(Cc2cnn(-c3c(F)cccc3F)c2)c2ncnc(N)c12 [Example 286, 7-{[1-(2,6-Difluorophenyl)-1H-pyrazol-4-yl]methyl}-5-(2-methoxypyridin-3-yl)-7H-pyrrolo[2,3-d]pyrimidin-4-amine] | 176 nM | 81 nM
13 | CCC(c1cn(-c2ccccc2F)nn1)n1cc(-c2cc[nH]n2)c2c(N)ncnc21 (single isomer, unassigned; enantiomer 2) [Example 148, 7-{1-[1-(2-Fluorophenyl)-1H-1,2,3-triazol-4-yl]propyl}-5-(1H-pyrazol-3-yl)-7H-pyrrolo[2,3-d]pyrimidin-4-amine, enantiomer 2] | 25.7 nM | 12.4 nM
14 | Cc1c(C(C)n2cc(-c3cnc(C(F)(F)F)nc3)c3c(N)ncnc32)nnn1-c1ccccc1F (single isomer, unassigned; enantiomer 1) [Example 179, 7-{1-[1-(2-Fluorophenyl)-5-methyl-1H-1,2,3-triazol-4-yl]ethyl}-5-[2-(trifluoromethyl)pyrimidin-5-yl]-7H-pyrrolo[2,3-d]pyrimidin-4-amine, enantiomer 1] | 23.1 nM | 9.97 nM

Continued by falling EC50 [1], values first:

Row | EC50 [1] | EC50 [2] | SMILES
15 | 997 nM | 669 nM | COCC1CC1c1cn(Cc2cn(-c3ccccc3F)nn2)c2ncnc(N)c12 (centres unmarked) [Example 290, 7-{[1-(2-Fluorophenyl)-1H-1,2,3-triazol-4-yl]methyl}-5-[2-(methoxymethyl)cyclopropyl]-7H-pyrrolo[2,3-d]pyrimidin-4-amine]
16 | 721 nM | 918 nM | CCC(c1cn(-c2ccccc2F)nn1)n1cc(-c2cncnc2OC)c2c(N)ncnc21 (single isomer, unassigned; enantiomer 1) [Example 133, (−) 7-{1-[1-(2-Fluorophenyl)-1H-1,2,3-triazol-4-yl]propyl}-5-(4-methoxypyrimidin-5-yl)-7H-pyrrolo[2,3-d]pyrimidin-4-amine, enantiomer 1]
17 | 140 nM | 361 nM | CC(c1cn(-c2ccccc2F)nn1)n1cc(-c2ccccc2)c2c(N)ncnc21 (centres unmarked) [Example 94, 7-{1-[1-(2-Fluorophenyl)-1H-1,2,3-triazol-4-yl]ethyl}-5-phenyl-7H-pyrrolo[2,3-d]pyrimidin-4-amine]
18 | 136 nM | 1120 nM | CC(c1cc(-c2cccc(F)c2)no1)n1cc(-c2ccc(Cl)cc2)c2c(N)ncnc21 (centres unmarked) [Example 267, 5-(4-Chlorophenyl)-7-{1-[3-(3-fluorophenyl)-1,2-oxazol-5-yl]ethyl}-7H-pyrrolo[2,3-d]pyrimidin-4-amine]
19 | 117 nM | 43.8 nM | COc1ncccc1-c1cn(Cc2cnc(-c3ccccc3F)[nH]2)c2ncnc(N)c12 [Example 193, 7-{[2-(2-Fluorophenyl)-1H-imidazol-5-yl]methyl}-5-(2-methoxypyridin-3-yl)-7H-pyrrolo[2,3-d]pyrimidin-4-amine]
20 | 57.6 nM | 230 nM | CCC(c1cn(-c2ccc(F)c(F)c2)nn1)n1cc(-c2cc(F)cnc2OC)c2c(N)ncnc21 (single isomer, unassigned; enantiomer 2) [Example 156, 7-{1-[1-(3,4-Difluorophenyl)-1H-1,2,3-triazol-4-yl]propyl}-5-(5-fluoro-2-methoxypyridin-3-yl)-7H-pyrrolo[2,3-d]pyrimidin-4-amine, enantiomer 2]
21 | 50.5 nM | 21.6 nM | CC(c1cn(-c2ccc(F)cc2F)nn1)n1cc(-c2cnc(C(F)(F)F)nc2)c2c(N)ncnc21 (single isomer, unassigned; enantiomer 1) [Example 123, 7-{1-[1-(2,4-Difluorophenyl)-1H-1,2,3-triazol-4-yl]ethyl}-5-[2-(trifluoromethyl)pyrimidin-5-yl]-7H-pyrrolo[2,3-d]pyrimidin-4-amine, enantiomer 1]
22 | 41 nM | 95.9 nM | CC(C)n1cc(Cn2c(C#N)c(-c3ccc(Cl)cc3)c3c(N)ncnc32)cn1 [Example 25, 4-Amino-5-(4-chlorophenyl)-7-{[1-(propan-2-yl)-1H-pyrazol-4-yl]methyl}-7H-pyrrolo[2,3-d]pyrimidine-6-carbonitrile]
23 | 20.4 nM | 12.2 nM | CC(c1cn(-c2ccccc2F)nn1)n1c(C#N)c(-c2cnc(C(F)(F)F)nc2)c2c(N)ncnc21 (single isomer, unassigned) [Example 9, 4-amino-7-{1-[1-(2-fluorophenyl)-1H-1,2,3-triazol-4-yl]ethyl}-5-[2-(trifluoromethyl)pyrimidin-5-yl]-7H-pyrrolo[2,3-d] pyrimidine-6-carbonitrile]
24 | 8.77 nM | 7.51 nM | CC(c1cnn(-c2ccccc2F)c1)n1c(C#N)c(-c2cnc(C(F)F)nc2)c2c(N)ncnc21 (single isomer, unassigned) [Example 2, 4-Amino-5-[2-(difluoromethyl)pyrimidin-5-yl]-7-{1-[1-(2-fluorophenyl)-1H-pyrazol-4-yl]ethyl}-7H-pyrrolo[2,3-d]pyrimidine-6-carbonitrile]
25 | 7.23 nM | 11.1 nM | CCC(c1cn(-c2ccccc2F)nn1)n1cc(-c2cc(F)cnc2OC)c2c(N)ncnc21 (centres unmarked) [Example 223, 7-{1-[1-(2-Fluorophenyl)-1H-1,2,3-triazol-4-yl]propyl}-5-(5-fluoro-2-methoxypyridin-3-yl)-7H-pyrrolo[2,3-d]pyrimidin-4-amine]
